Laboratory results reported in patent US9995734B2, “Human T cell line assay for evaluating the immunologic identity of glatiramer acetate preparations” (Mylan Inc., priority 2013, dated 2018).

Assays:
Donor 3 COP T-Cell Lines = assay: ATP proliferation assay (CellTiter Glo), Donor 3 COP T-cell lines, incl. reactivity to non-canonical GA peptides; type: cell-based, human; settings: for Reactivity (proliferation), Mean: Day 54 of culture; for Mean, ATP proliferation assay: 10 μg/mL
Donor 3 GMA T-Cell Lines = assay: ATP proliferation assay (CellTiter Glo), Donor 3 GMA T-cell lines, incl. reactivity to non-canonical GA peptides; type: cell-based, human; settings: for Mean, ATP proliferation assay: 10 μg/mL

FFKNIVTPRTPPPSQGK [MBP]
Reactivity (proliferation), Mean (Donor 3 COP T-Cell Lines; T-cell line 165-B6C, 3 μg/mL antigen, No Antigen 2358): 2205 RLU
Reactivity (proliferation), Mean (Donor 3 COP T-Cell Lines; T-cell line 165-B6C, 10 μg/mL antigen, No Antigen 2358): 2268 RLU
Mean, ATP proliferation assay (Donor 3 COP T-Cell Lines; T-cell line 165-B6C, Day 46, after 3 days): 3216 RLU
Reactivity (proliferation), Mean (Donor 3 COP T-Cell Lines; T-cell line 165-B6C, 100 μg/mL antigen, No Antigen 2358): 2201 RLU
Reactivity (proliferation), Mean (Donor 3 COP T-Cell Lines; T-cell line 165-B10C, 3 μg/mL antigen, No Antigen 2234): 2176 RLU
Reactivity (proliferation), Mean (Donor 3 COP T-Cell Lines; T-cell line 165-B10C, 10 μg/mL antigen, No Antigen 2234): 2320 RLU
Mean, ATP proliferation assay (Donor 3 COP T-Cell Lines; T-cell line 165-B10C, Day 46, after 3 days): 3003 RLU
Reactivity (proliferation), Mean (Donor 3 COP T-Cell Lines; T-cell line 165-B10C, 100 μg/mL antigen, No Antigen 2234): 2272 RLU
Mean, ATP proliferation assay (Donor 3 COP T-Cell Lines; T-cell line 165-C4C, Day 39): 1631
Proliferation (luminescent ATP assay), Mean (Donor 3 COP T-Cell Lines; T-cell line 165-C7C, 10 μg/mL antigen, autologous B-LCL): 278 RLU
Mean, ATP proliferation assay (Donor 3 COP T-Cell Lines; T-cell line 165-C7C, Day 39): 1673
Mean, ATP proliferation assay (Donor 3 COP T-Cell Lines; T-cell line 165-D2C, Day 39): 1927
Reactivity (proliferation), Mean (Donor 3 COP T-Cell Lines; T-cell line 165-D3C, 3 μg/mL antigen, No Antigen 8319): 8037 RLU
Reactivity (proliferation), Mean (Donor 3 COP T-Cell Lines; T-cell line 165-D3C, 10 μg/mL antigen, No Antigen 8319): 8656 RLU
Mean, ATP proliferation assay (Donor 3 COP T-Cell Lines; T-cell line 165-D3C, Day 46, after 3 days): 15482 RLU
Reactivity (proliferation), Mean (Donor 3 COP T-Cell Lines; T-cell line 165-D3C, 100 μg/mL antigen, No Antigen 8319): 8647 RLU
Reactivity (proliferation), Mean (Donor 3 COP T-Cell Lines; T-cell line 165-D11C, 3 μg/mL antigen, No Antigen 4571): 4348 RLU
Reactivity (proliferation), Mean (Donor 3 COP T-Cell Lines; T-cell line 165-D11C, 10 μg/mL antigen, No Antigen 4571): 4301 RLU
Mean, ATP proliferation assay (Donor 3 COP T-Cell Lines; T-cell line 165-D11C, Day 46, after 3 days): 8406 RLU
Reactivity (proliferation), Mean (Donor 3 COP T-Cell Lines; T-cell line 165-D11C, 100 μg/mL antigen, No Antigen 4571): 4020 RLU
Reactivity (proliferation), Mean (Donor 3 COP T-Cell Lines; T-cell line 165-E3C, 3 μg/mL antigen, No Antigen 2797): 2898 RLU
Reactivity (proliferation), Mean (Donor 3 COP T-Cell Lines; T-cell line 165-E3C, 10 μg/mL antigen, No Antigen 2797): 2658 RLU
Mean, ATP proliferation assay (Donor 3 COP T-Cell Lines; T-cell line 165-E3C, Day 46, after 3 days): 7662 RLU
Reactivity (proliferation), Mean (Donor 3 COP T-Cell Lines; T-cell line 165-E3C, 100 μg/mL antigen, No Antigen 2797): 2582 RLU
Reactivity (proliferation), Mean (Donor 3 COP T-Cell Lines; T-cell line 165-F3C, 3 μg/mL antigen, No Antigen 3150): 3369 RLU
Reactivity (proliferation), Mean (Donor 3 COP T-Cell Lines; T-cell line 165-F3C, 10 μg/mL antigen, No Antigen 3150): 3115 RLU
Mean, ATP proliferation assay (Donor 3 COP T-Cell Lines; T-cell line 165-F3C, Day 46, after 3 days): 9849 RLU
Reactivity (proliferation), Mean (Donor 3 COP T-Cell Lines; T-cell line 165-F3C, 100 μg/mL antigen, No Antigen 3150): 3017 RLU
Reactivity (proliferation), Mean (Donor 3 COP T-Cell Lines; T-cell line 165-F6C, 3 μg/mL antigen, No Antigen 2189): 1960 RLU
Reactivity (proliferation), Mean (Donor 3 COP T-Cell Lines; T-cell line 165-F6C, 10 μg/mL antigen, No Antigen 2189): 1977 RLU
Mean, ATP proliferation assay (Donor 3 COP T-Cell Lines; T-cell line 165-F6C, Day 46, after 3 days): 2214 RLU
Reactivity (proliferation), Mean (Donor 3 COP T-Cell Lines; T-cell line 165-F6C, 100 μg/mL antigen, No Antigen 2189): 3672 RLU
Mean, ATP proliferation assay (Donor 3 GMA T-Cell Lines; T-cell line 165-B2G, Day 40): 3320
Proliferation (luminescent ATP assay), Mean (Donor 3 GMA T-Cell Lines; T-cell line 165-B5G, 10 μg/mL antigen, Day 55 of culturing, No Antigen Value 846): 871 RLU
Mean, ATP proliferation assay (Donor 3 GMA T-Cell Lines; T-cell line 165-B5G, Day 40): 3398
Mean, ATP proliferation assay (Donor 3 GMA T-Cell Lines; T-cell line 165-C4G, Day 40): 3482
Proliferation (luminescent ATP assay), Mean (Donor 3 GMA T-Cell Lines; T-cell line 165-C5G, 10 μg/mL antigen, autologous B-LCL): 469 RLU
Mean, ATP proliferation assay (Donor 3 GMA T-Cell Lines; T-cell line 165-C5G, Day 40): 3401
Mean, ATP proliferation assay (Donor 3 GMA T-Cell Lines; T-cell line 165-C8G, tested with the Donor 3 COP lines of Table 25): 5279 RLU
Mean, ATP proliferation assay (Donor 3 GMA T-Cell Lines; T-cell line 165-D8G, Day 40): 6909
Proliferation (luminescent ATP assay), Mean (Donor 3 GMA T-Cell Lines; T-cell line 165-E7G, 10 μg/mL antigen, autologous B-LCL, Day 55): 2116 RLU
Mean, ATP proliferation assay (Donor 3 GMA T-Cell Lines; T-cell line 165-E7G, Day 40): 2989
Proliferation (luminescent ATP assay), Mean (Donor 3 GMA T-Cell Lines; T-cell line 165-E9G, 1 μg/mL antigen, Day 50 of culturing, No Antigen Value 1742): 1527 RLU
Proliferation (luminescent ATP assay), Mean (Donor 3 GMA T-Cell Lines; T-cell line 165-E9G, 3 μg/mL antigen, Day 50 of culturing, No Antigen Value 1742): 1428 RLU
Proliferation (luminescent ATP assay), Mean (Donor 3 GMA T-Cell Lines; T-cell line 165-E9G, 10 μg/mL antigen, autologous B-LCL): 163 RLU
Mean, ATP proliferation assay (Donor 3 GMA T-Cell Lines; T-cell line 165-E9G, Day 40): 2892
Proliferation (luminescent ATP assay), Mean (Donor 3 GMA T-Cell Lines; T-cell line 165-E9G, 30 μg/mL antigen, Day 50 of culturing, No Antigen Value 1742): 1208 RLU
Proliferation (luminescent ATP assay), Mean (Donor 3 GMA T-Cell Lines; T-cell line 165-E9G, 10 μpg/mL antigen, Day 50 of culturing, No Antigen Value 1742): 1247 RLU
Mean, ATP proliferation assay (Donor 3 GMA T-Cell Lines; T-cell line 165-F2G, Day 40): 2345
Proliferation (luminescent ATP assay), Mean (Donor 3 GMA T-Cell Lines; T-cell line 165-F5G, 10 μg/mL antigen, autologous B-LCL): 138 RLU
Mean, ATP proliferation assay (Donor 3 GMA T-Cell Lines; T-cell line 165-F5G, Day 40): 2904
Mean, ATP proliferation assay (Donor 3 GMA T-Cell Lines; T-cell line 165-F8G, Day 40): 3366
Proliferation (luminescent ATP assay), Mean (Donor 3 GMA T-Cell Lines; T-cell line 165-F10G, 10 μg/mL antigen, autologous B-LCL): 831 RLU
Mean, ATP proliferation assay (Donor 3 GMA T-Cell Lines; T-cell line 165-F10G, Day 40): 3585
Proliferation (luminescent ATP assay), Mean (Donor 3 GMA T-Cell Lines; T-cell line 165-H11G, 10 μg/mL antigen, autologous B-LCL): 323 RLU
Mean, ATP proliferation assay (Donor 3 GMA T-Cell Lines; T-cell line 165-H11G, Day 40): 2925
